Measurements taken from ChEMBL document CHEMBL4308908, “Lamellarin-inspired potent topoisomerase I inhibitors with the unprecedented benzo[g][1]benzopyrano[4,3-b]indol-6(13H)-one scaffold” (Bioorg Med Chem, 2019).
Active and inactive are the calls of the source. The rule behind the calls is not given here.

Assays:
[1] = test system: Colon 26; assay: Antitumor activity against mouse Colon 26 cells implanted in BALB/c mouse at 50 mg/kg, iv administered every 2 days for 7 times starting 1 day after tumor implantation and measured daily until day 20; type: functional, organism-based
[2] = biological target: T1, DNA topoisomerase I (Bos taurus) (UniProt F1MN93); assay: Inhibition of calf thymus DNA topoisomerase 1 assessed as reduction in enzyme-mediated relaxation of supercoiled pBR322 plasmid DNA at 10 uM after 30 mins by ethidium bromide staining-based agarose gel electrophoresis
T1 sequence (whole entry): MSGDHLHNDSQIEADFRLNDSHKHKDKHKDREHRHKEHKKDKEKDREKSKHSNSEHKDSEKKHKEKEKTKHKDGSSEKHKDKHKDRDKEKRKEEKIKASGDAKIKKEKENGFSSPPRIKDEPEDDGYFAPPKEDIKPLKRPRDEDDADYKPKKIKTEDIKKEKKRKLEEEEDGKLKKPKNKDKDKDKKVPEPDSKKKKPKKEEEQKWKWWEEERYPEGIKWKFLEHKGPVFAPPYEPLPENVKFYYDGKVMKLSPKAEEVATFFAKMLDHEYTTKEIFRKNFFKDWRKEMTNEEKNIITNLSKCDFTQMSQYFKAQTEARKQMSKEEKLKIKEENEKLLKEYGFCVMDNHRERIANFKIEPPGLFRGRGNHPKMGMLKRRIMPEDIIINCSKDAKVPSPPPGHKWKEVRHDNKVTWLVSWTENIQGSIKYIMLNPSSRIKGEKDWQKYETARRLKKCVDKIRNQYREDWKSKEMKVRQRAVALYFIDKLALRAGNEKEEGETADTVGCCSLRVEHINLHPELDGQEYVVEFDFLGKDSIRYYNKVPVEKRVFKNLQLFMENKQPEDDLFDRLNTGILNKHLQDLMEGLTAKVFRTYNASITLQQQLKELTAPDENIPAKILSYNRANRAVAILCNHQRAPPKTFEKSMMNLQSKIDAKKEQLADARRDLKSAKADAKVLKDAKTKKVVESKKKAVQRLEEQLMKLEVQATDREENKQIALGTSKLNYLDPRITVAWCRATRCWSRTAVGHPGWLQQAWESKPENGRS

[3] = biological target: T1, DNA topoisomerase I (Bos taurus); assay: Inhibition of calf thymus DNA topoisomerase 1 assessed as reduction in enzyme-mediated relaxation of supercoiled pBR322 plasmid DNA at 10 uM after 30 mins by agarose gel electrophoresis
[4] = test system: HCT-116; assay: Antiproliferative activity against human HCT116 cells after 48 hrs by SRB assay; type: functional; settings: HCT-116, 48 h, read-out: GI50
[5] = test system: U-251; assay: Antiproliferative activity against human U251 cells after 48 hrs by SRB assay; type: functional; settings: U-251, 48 h, read-out: GI50
[6] = test system: NCI-H522; assay: Antiproliferative activity against human NCI-H522 cells after 48 hrs by SRB assay; type: functional; settings: NCI-H522, 48 h, read-out: GI50
[7] = test system: ACHN; assay: Antiproliferative activity against human ACHN cells after 48 hrs by SRB assay; type: functional; settings: read-out: GI50
[8] = test system: LOX IMVI; assay: Antiproliferative activity against human LOXIMVI cells after 48 hrs by SRB assay; type: functional; settings: read-out: GI50
[9] = test system: MKN-28; assay: Antiproliferative activity against human MKN28 cells after 48 hrs by SRB assay; type: functional; settings: MKN-28, 48 h, read-out: GI50
[10] = test system: MCF7; assay: Antiproliferative activity against human MCF7 cells after 48 hrs by SRB assay; type: functional; settings: MCF7, 48 h, read-out: GI50
[11] = test system: SK-OV-3; assay: Antiproliferative activity against human SKOV3 cells after 48 hrs by SRB assay; type: functional; settings: SK-OV-3, 48 h, read-out: GI50
[12] = test system: DU-145; assay: Antiproliferative activity against human DU145 cells after 48 hrs by SRB assay; type: functional; settings: DU-145, 48 h, read-out: GI50

Row | SMILES | Activity [1] | inhibition [2] | inhibition [3] | GI50 [4] [nM] | GI50 [5] [nM] | GI50 [6] [nM] | GI50 [7] [nM] | GI50 [8] [nM] | GI50 [9] [nM] | GI50 [10] [nM] | GI50 [11] [nM] | GI50 [12] [nM]
1 | CCc1c2c(nc3ccc(OC(=O)N4CCC(N5CCCCC5)CC4)cc13)-c1cc3c(c(=O)n1C2)COC(=O)[C@]3(O)CC | Active | – | – | – | – | – | – | – | – | – | – | –
2 | CC[C@@]1(O)C(=O)OCc2c1cc1n(c2=O)Cc2cc3ccccc3nc2-1 | – | Active | Active | – | – | – | – | – | – | – | – | –
3 | C#CCn1c2c3cc(OC)c(O)cc3ccc2c2c(=O)oc3cc(O)c(OC)cc3c21 | – | – | – | 34 | < 10 | < 10 | < 10 | < 10 | 66 | 18 | 56 | 27
4 | C=CCn1c2c3cc(OC)c(O)cc3ccc2c2c(=O)oc3cc(O)c(OC)cc3c21 | – | – | – | 25 | 7.6 | 9.5 | 4.2 | 6.4 | 82 | 14 | 29 | 6.5
5 | COc1cc2c(cc1O)oc(=O)c1c2c(Br)c2c3cc(OC)c(O)cc3ccn21 | – | – | – | 67 | 29 | 14 | 15 | 25 | 560 | 41 | 500 | 28
6 | COc1cc2c(cc1O)oc(=O)c1c2c(C)c2c3cc(OC)c(O)cc3ccn21 | – | – | – | 33 | 9.1 | 4.7 | 3.8 | 5.5 | 64 | 110 | 38 | 4.7
7 | COc1cc(-c2c3c4cc(OC)c(O)cc4oc(=O)c3n3ccc4cc(O)c(OC)cc4c23)ccc1O [LAMELLARIN D] | – | Active | Active | < 10 | < 10 | < 10 | < 10 | < 10 | 50 | < 10 | 38 | < 10
8 | COc1cc2c(ccc3c4c(=O)oc5cc(O)c(OC)cc5c4n(CCN(C)C)c23)cc1O | – | Active | Active | 9.7 | 4 | 3.9 | 1.9 | 2.7 | 67 | 2.6 | 26 | 2
9 | COc1cc2c(cc1O)oc(=O)c1c2c(F)c2c3cc(OC)c(O)cc3ccn21 | – | – | – | 120 | 71 | < 10 | 28 | 24 | 360 | 110 | 470 | 24
10 | COc1cc2c(cc1O)oc(=O)c1c2c(Cl)c2c3cc(OC)c(O)cc3ccn21 | – | – | – | 37 | < 10 | < 10 | < 10 | < 10 | 130 | 13 | 250 | < 10
11 | CCn1c2c3cc(OC)c(O)cc3ccc2c2c(=O)oc3cc(O)c(OC)cc3c21 | – | – | – | < 10 | < 10 | < 10 | < 10 | < 10 | < 10 | < 10 | < 10 | < 10
12 | COc1cc2c(ccc3c2[nH]c2c4cc(OC)c(O)cc4oc(=O)c32)cc1O | – | Active | Active | 88 | < 10 | < 10 | 110 | 21 | 1600 | 68 | 330 | 51
13 | COc1cc2c(cc1O)oc(=O)c1c2c(CN(C)C)c2c3cc(OC)c(O)cc3ccn21 | – | – | – | 310 | 100 | 82 | 44 | 180 | 2300 | 55 | 1600 | 110
14 | COc1cc2c(cc1O)oc(=O)c1c2c(C=O)c2c3cc(OC)c(O)cc3ccn21 | – | – | – | 78 | 29 | 21 | 26 | 35 | 230 | 37 | 230 | 28
15 | COc1cc2c(cc1O)oc(=O)c1c2cc2c3cc(OC)c(O)cc3ccn21 | – | – | – | 33 | 27 | < 10 | 14 | 20 | 84 | 76 | 83 | 20
16 | CCc1c2c(nc3ccc(O)cc13)-c1cc3c(c(=O)n1C2)COC(=O)[C@]3(O)CC [7-ETHYL-10-HYDROXYCAMPTOTHECIN] | – | – | – | 23 | 2.8 | 3.7 | 5.9 | 5.3 | 110 | 3 | 23 | 4.3
